According to patent US20190369111A1, “MOLECULAR KINETICS EVALUATION METHOD AND SCREENING METHOD” (Tokyo University of Science Foundation, priority 2016, published 2019):

Target: T1, wild-type p53 protein (Mus musculus, UniProt P02340)
T1 construct: administered intraperitoneally to C57BL/6J wild-type mice; from tissue; host or cells: C57BL/6J wild-type mice: liver, kidneys, spleen, heart
Experiment: Degradation of wild-type p53 protein in each tissue of mouse after administration, Western blot analysis
Assay type: in vivo
Description: TIBC-CANDDY_MLN was dissolved in DMSO immediately before administration, and then dissolved in corn oil (Code No. 25606-55, Nacalai Tesque) so that the concentration of DMSO was 10 vol %, and then a dose of 50 mg/kg body weight or 100 mg/kg body weight was administered intraperitoneally to C57BL/6J wild-type mice (7 to 8 weeks old, male) (CLEA Japan, Inc.) (n=3). As a control, an injection carrier (corn oil containing 10 vol % DMSO) was used. The mice were kept under an environment of ad libitum access to food and water. The mice were dissected under deep anesthesia by Somnopentyl (Kyoritsu Seiyaku Corporation) 48 hours after administration. Abdominal section was performed, and then the liver, kidneys, spleen, and heart were sequentially extracted and flash frozen in liquid nitrogen. Each tissue frozen in liquid nitrogen was stored in a deep freezer at −80° C.
The frozen tissues (spleen: 0.02 g, other tissues: 0.04 g) were each frozen and triturated, and then 1×TKM tissue lysis buffer (50 mM triethanolamine (pH 7.8), 50 mM KCl, 5 mM MgCl2, 0.25 M sucrose, 1 mM PMSF, protein inhibitors cocktail-EDTA free (Code No. 03969-21, Nacalai Tesque), 1 mM DTT, and 5 μL/mL recombinant RNase inhibitor (40 U/μL, Cat No. 2313A, Lot No. K8402DA, TAKARA Bio)) were added in an amount of 490 μL for the spleen and 980 μL for the others, and dissolved by rotation for 15 minutes (1 rpm, 25° C.). Then, the resultant product was subjected to centrifugation (at 3000 rpm×15 minutes, 4° C.), and the supernatants (each tissue extract) was collected. The concentration of proteins in each tissue extract was quantified with a spectrophotometer using each tissue extract that had been diluted 20 times using DEPC-treated water.
Each tissue extract collected was subjected to Western blot analysis. An SDS-PAGE gel was prepared using TGX™ FastCast™ Acrylamide Kit, 12% (Bio-Rad). Electrophoresis samples were prepared in a 6×SDS-PAGE sample buffer (62.5 mM Tris-HCl pH 6.8, 2% SDS, 5% 2-mercaptoethanol, 10% glycerol, 0.25% BPB), and placed on a heat block at 95° C. for 5 minutes. The electrophoresis samples prepared were applied at 50 μg/well for detecting GAPDH, and at 100 μg/well for other detection. Electrophoresis was performed at 160 V for 60 minutes (electrophoresis buffer; 195 mM glycine, 25 mM Tris).
After electrophoresis, proteins were transferred to a PVDF membrane (Immobion™-P, Millipore) under conditions of 100 V and 1.5 hours using a tank-type blotting device and a transfer buffer (25 mM Tris-HCl, 195 mM glycine, 0.01% SDS, 15% methanol). The membrane was split into two at the position of a 25 kDa marker. The membrane after transfer was shaken and blocked in 5% skim milk/TBS-T (100 mM Tris-HCl, 150 mM NaCl, 0.1% Tween-20, pH 7.6) at room temperature for 30 minutes. After blocking, a primary antibody reaction was performed in 5% skim milk/TBS-T. As the primary antibody, an anti-p53 antibody (MAB1355, R&D Systems, Inc., diluted 500 times), an anti-MDM2 antibody (sc-965, SantaCruz, diluted 500 times), and an anti-GAPDH antibody (sc-32233, SantaCruz, diluted 20000 times) were used. The membrane was shaken at room temperature for 60 minutes, and then the membrane was washed with TBS-T for 5 minutes. […] Subsequently, the membrane was treated with a chemiluminescence reagent Immobilon™ Western (Millipore), and then chemiluminescence was detected using a lumino image analyzer LAS-3000 (FUJIFILM Corporation). Detected bands were quantified with an image processing software ImageJ (NIH).

T1 sequence (P02340 whole entry): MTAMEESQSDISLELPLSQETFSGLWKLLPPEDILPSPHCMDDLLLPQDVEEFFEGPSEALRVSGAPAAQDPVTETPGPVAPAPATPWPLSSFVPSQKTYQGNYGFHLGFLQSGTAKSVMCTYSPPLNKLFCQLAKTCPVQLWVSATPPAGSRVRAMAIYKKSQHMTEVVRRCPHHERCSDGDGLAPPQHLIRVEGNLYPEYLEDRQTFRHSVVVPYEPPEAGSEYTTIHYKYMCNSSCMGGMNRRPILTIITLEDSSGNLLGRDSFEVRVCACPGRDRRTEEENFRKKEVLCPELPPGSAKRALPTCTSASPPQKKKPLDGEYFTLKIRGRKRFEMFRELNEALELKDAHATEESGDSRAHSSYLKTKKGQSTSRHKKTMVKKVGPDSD

CC(C)C[C@H](NC(=O)CNC(=O)c1cc(Cl)ccc1Cl)C(=O)NCCCCCCC(=O)Nc1ccc(C(=O)/C=C/c2ccc(I)cc2)cc1 [TIBC-CANDDY_MLN]
amount of wild-type p53 protein in heart (intraperitoneal 50 or 100 mg/kg body weight, 48 hours after administration, heart): reduced in a concentration dependent manner
amount of wild-type p53 protein in kidneys (intraperitoneal 50 or 100 mg/kg body weight, 48 hours after administration, kidneys): reduction of the target was not found
amount of wild-type p53 protein in spleen (intraperitoneal 50 or 100 mg/kg body weight, 48 hours after administration, spleen): reduced in a concentration dependent manner
amount of wild-type p53 protein in liver (intraperitoneal, only at a dose of 100 mg/kg body weight, 48 hours after administration, liver): reduced slightly
transfer property to tissues (molecular kinetics) (suggested from p53 and MDM2 degradation in tissues): showed a higher transfer property to the heart, liver, and spleen as compared with the kidneys
